Reference: paper PMC6522510 (Nature Communications, 2019)
pEC50: −log10 of the molar value. “And” between values parts separate entries of the source, which are not always exact repeats. Equal values may be shown once. Read-outs that look alike come from different tables or passages of the source.

Assays:
[1] = system: CMK; assay: Secondary dose-response HTS, Cell Titer Glo; assay type: cell-based, human; conditions: Homo sapiens, CMK, read-out: average effective concentration, CMK
[2] = system: CMS; assay: Secondary dose-response HTS, Cell Titer Glo; assay type: cell-based, human; conditions: Homo sapiens, HTS, read-out: average effective concentration, CMS
[3] = system: MOLM-13; assay: cells; set-up: species or system AML cell lines (8); Secondary HTS, 10-point dose-response in triplicate, Cell Titer Glo viability, four-parameter fit EC50; conditions: Homo sapiens, MOLM-13, 72 h, read-out: MOLM-13
[4] = system: MV4-11; assay: cells; set-up: species or system AML cell lines (8); Secondary HTS, 10-point dose-response in triplicate, Cell Titer Glo viability, four-parameter fit EC50; conditions: Homo sapiens, MV4-11, 72 h, read-out: MV4-11
[5] = system: CHRF288-11; assay: cells; set-up: species or system AML cell lines (8); Secondary HTS, 10-point dose-response in triplicate, Cell Titer Glo viability, four-parameter fit EC50; conditions: 72 h, read-out: CHRF288-11
[6] = system: M07e; assay: cells; set-up: species or system AML cell lines (8); Secondary HTS, 10-point dose-response in triplicate, Cell Titer Glo viability, four-parameter fit EC50; conditions: M-07e, 72 h, read-out: M07e
[7] = system: ML-2; assay: cells; set-up: species or system AML cell lines (8); Secondary HTS, 10-point dose-response in triplicate, Cell Titer Glo viability, four-parameter fit EC50; conditions: Homo sapiens, ML-2, 72 h, read-out: ML-2
[8] = system: U937; assay: cells; set-up: species or system AML cell lines (8); Secondary HTS, 10-point dose-response in triplicate, Cell Titer Glo viability, four-parameter fit EC50; conditions: Homo sapiens, U-937, 72 h, read-out: U937
[9] = system: MV4-11; assay: Secondary dose-response HTS, Cell Titer Glo; assay type: cell-based, human; conditions: Homo sapiens; secondary high-throughput screen; MV4-11; read-out: average effective concentration, MV4-11
[10] = system: CMK; assay: cells; set-up: species or system AML cell lines (8); Secondary HTS, 10-point dose-response in triplicate, Cell Titer Glo viability, four-parameter fit EC50; conditions: Homo sapiens, CMK, 72 h, read-out: CMK
[11] = system: CMS; assay: cells; set-up: species or system AML cell lines (8); Secondary HTS, 10-point dose-response in triplicate, Cell Titer Glo viability, four-parameter fit EC50; conditions: 72 h, read-out: CMS
[12] = system: M07e; assay: Secondary dose-response HTS, Cell Titer Glo; assay type: cell-based, human; conditions: Homo sapiens, M-07e; secondary high-throughput screen; M07e; read-out: average effective concentration, M07e
[13] = system: U937; assay: Secondary dose-response HTS, Cell Titer Glo; assay type: cell-based, human; conditions: Homo sapiens, U-937; secondary high-throughput screen; U937; read-out: average effective concentration, U937
[14] = system: CHRF288-11; assay: Secondary dose-response HTS, Cell Titer Glo; assay type: cell-based, human; conditions: Homo sapiens, HTS; secondary high-throughput screen; CHRF288-11; read-out: average effective concentration, CHRF288-11
[15] = system: CHRF288-11; set-up: species or system AML cell lines (8); Primary HTS, single concentration about 10 uM, Cell Titer Glo viability; log10 luminescence, per cent inhibition relative to cycloheximide control; conditions: 72 h, relative to cycloheximide control, log10 luminescence; inhibitor
[16] = system: CMK; set-up: species or system AML cell lines (8); Primary HTS, single concentration about 10 uM, Cell Titer Glo viability; log10 luminescence, per cent inhibition relative to cycloheximide control; conditions: 72 h, relative to cycloheximide control, log10 luminescence, inhibitor
[17] = system: CMS; set-up: species or system AML cell lines (8); Primary HTS, single concentration about 10 uM, Cell Titer Glo viability; log10 luminescence, per cent inhibition relative to cycloheximide control; conditions: 72 h, relative to cycloheximide control, log10 luminescence, inhibitor
[18] = system: M07e; set-up: species or system AML cell lines (8); Primary HTS, single concentration about 10 uM, Cell Titer Glo viability; log10 luminescence, per cent inhibition relative to cycloheximide control; conditions: 72 h, relative to cycloheximide control, log10 luminescence, inhibitor
[19] = system: ML-2; set-up: species or system AML cell lines (8); Primary HTS, single concentration about 10 uM, Cell Titer Glo viability; log10 luminescence, per cent inhibition relative to cycloheximide control; conditions: 72 h, relative to cycloheximide control, log10 luminescence, inhibitor
[20] = system: MOLM-13; set-up: species or system AML cell lines (8); Primary HTS, single concentration about 10 uM, Cell Titer Glo viability; log10 luminescence, per cent inhibition relative to cycloheximide control; conditions: 72 h, relative to cycloheximide control, log10 luminescence, inhibitor
[21] = system: MV4-11; set-up: species or system AML cell lines (8); Primary HTS, single concentration about 10 uM, Cell Titer Glo viability; log10 luminescence, per cent inhibition relative to cycloheximide control; conditions: 72 h, relative to cycloheximide control, log10 luminescence, inhibitor
[22] = system: U937; set-up: species or system AML cell lines (8); Primary HTS, single concentration about 10 uM, Cell Titer Glo viability; log10 luminescence, per cent inhibition relative to cycloheximide control; conditions: 72 h, relative to cycloheximide control, log10 luminescence, inhibitor
[23] = system: MOLM-13; assay: Secondary dose-response HTS, Cell Titer Glo; assay type: cell-based, human; conditions: Homo sapiens; secondary high-throughput screen; MOLM-13; read-out: average effective concentration, MOLM-13
[24] = secondary high-throughput screen
[25] = secondary high-throughput screen, CMS

| Compound | pEC50 [3] | pEC50 [4] | pEC50 [5] | pEC50 [6] | pEC50 [7] | pEC50 [8] | pEC50 [9] | pEC50 [10] | pEC50 [11] | pEC50 [12] | further results |
| --- | --- | --- | --- | --- | --- | --- | --- | --- | --- | --- | --- |
| Cc1cc(Nc2nc(N[C@@H](C)c3ncc(F)cn3)ncc2Cl)n[nH]1 [AZD1480] | < 5.00 | < 5.00 | < 5.00 | < 5.00 | < 5.00 | < 5.00 |  |  |  |  | pEC50 [1, 24]: < 5.00; pEC50 [2, 25]: 5.48 |
| NC(=O)[C@@H](CCC(F)(F)F)N(Cc1ccc(-c2ncon2)cc1F)S(=O)(=O)c1ccc(Cl)cc1 [BMS-708163] | < 5.00 |  | < 5.00 | < 5.00 | < 5.00 | < 5.00 | < 5.00 | < 5.00 | < 5.00 |  |  |
| CCn1c(C(=O)N(C2CC2)C2CC2)cc2c3c(ncn3C)c(Nc3cc(C)n(C)n3)nc21 [BMS-911543] | < 5.00 | < 5.00 | < 5.00 |  | < 5.00 | < 5.00 |  | < 5.00 |  | 5.06 | pEC50 [2, 25]: 5.30 |
| O=c1[nH]cc(F)c(=O)[nH]1 [Compound 5-FLUOROURACIL] | < 5.00 |  | < 5.00 | < 5.00 | < 5.00 | < 5.00 | < 5.00 | < 5.00 | < 5.00 |  |  |
| Cc1cc(Nc2cc(N3CCN(C)CC3)nc(/C=C/c3ccccc3)n2)n[nH]1 [ENMD-2076] | 7.02 | 6.90 | < 5.00 | < 5.00 | < 5.00 | < 5.00 |  |  |  |  | pEC50 [1]: 6.96; pEC50 [2]: 5.49 |
| CC(C)Oc1ccc(C(=O)N[C@H](CNC(=O)CN(C)C)Cc2ccc(-c3cn4cccc([C@H](C)O)c4n3)cc2)cc1Cl [GSK-923295] | < 5.00 | < 5.00 | < 5.00 |  | 8.11 |  |  | < 5.00 |  | 6.85 | pEC50 [2]: 7.96; pEC50 [13]: 9.00 |
| CC(C)C[C@H](NC(=O)CNC(=O)c1cc(Cl)ccc1Cl)B(O)O [IXAZOMIB] | 8.17 | < 5.00 |  |  | 8.28 |  |  |  |  | 7.96 | pEC50 [14]: 8.00; pEC50 [1, 24]: 8.15; pEC50 [2, 25]: 8.25; pEC50 [13]: 8.00 |
| C[C@]1(O)C[C@@H](c2nc(-c3ccc4ccc(-c5ccccc5)nc4c3)c3c(N)nccn32)C1 [LINSITINIB] | < 5.00 |  | < 5.00 | < 5.00 | < 5.00 | < 5.00 | < 5.00 | < 5.00 | < 5.00 |  | CHRF288-11 %inh [15]: 34.61%; CMK %inh [16]: 18.57%; CMS %inh [17]: 2.626%; M07e %inh [18]: 2.638%; ML-2 %inh [19]: 11.6%; MOLM-13 %inh [20]: 2.501%; MV4-11 %inh [21]: 7.816%; U937 %inh [22]: 2.082% |
| Cc1ccc(C(=O)Nc2ccc(Oc3cc4cnn(C)c4cc3-c3cn[nH]c3)c(F)c2)c(=O)n1-c1ccc(F)cc1 [Merestinib] | 8.24 | < 5.00 | < 5.00 |  | < 5.00 | < 5.00 |  | < 5.00 | < 5.00 | 7.60 |  |
| Cc1cn(-c2cc(NC(=O)c3ccc(C)c(Nc4nccc(-c5cccnc5)n4)c3)cc(C(F)(F)F)c2)cn1 [NILOTINIB] | < 5.00 | < 5.00 | < 5.00 |  | < 5.00 | < 5.00 |  | < 5.00 | < 5.00 | < 5.00 |  |
| CCCc1nc(C(C)(C)O)c(C(=O)OCc2oc(=O)oc2C)n1Cc1ccc(-c2ccccc2-c2nnn[nH]2)cc1 [OLMESARTAN MEDOXOMIL] | < 5.00 | < 5.00 | < 5.00 |  | < 5.00 | < 5.00 |  | < 5.00 | < 5.00 | 5.24 | CMK %inh ([16]; CMK %inh, 10 µM): 0.5387% and -8.221%; CMS %inh ([17]; CMS %inh, 10 µM): -4.154% and -3.286%; M07e %inh ([18]; M07e %inh, 10 µM): -0.6363% and -1.428%; ML-2 %inh ([19]; ML-2 %inh, 10 µM): 0.6032% and 1.808%; MOLM-13 %inh ([20]; MOLM-13 %inh, 10 µM): 3.566% and -1.782%; MV4-11 %inh ([21]; MV4-11 %inh, 10 µM): 1.21% and -0.1295%; U937 %inh ([22]; U937 %inh, 10 µM): -0.6807% and -1.42% |
| O=C1CCC[C@@H]2[C@H]3CCC[N+]4([O-])CCC[C@@H](CN12)[C@@H]34 (some centres unmarked) [OXYMATRINE] | < 5.00 | < 5.00 | < 5.00 |  | < 5.00 | < 5.00 |  | < 5.00 | < 5.00 | 7.24 |  |
| CO[C@H]1C[C@@H]2CC[C@@H](C)[C@@](O)(O2)C(=O)C(=O)N2CCCC[C@H]2C(=O)O[C@H]([C@H](C)C[C@@H]2CC[C@@H](O)[C@H](OC)C2)CC(=O)[C@H](C)/C=C(\C)[C@@H](O)[C@@H](OC)C(=O)[C@H](C)C[C@H](C)/C=C/C=C/C=C/1C [SIROLIMUS] |  |  | < 5.00 | < 5.00 | < 5.00 |  | 9.00 | < 5.00 |  |  | pEC50 [23]: < 5.00; pEC50 [2, 25]: < 5.00; pEC50 [13]: 9.00 |
| COc1cccc2c1c(O)c(C(=O)N(C)c1ccc(C(F)(F)F)cc1)c(=O)n2C [TASQUINIMOD] | < 5.00 | < 5.00 | < 5.00 |  | < 5.00 | < 5.00 |  | < 5.00 | < 5.00 | 5.92 |  |
| COc1cc2nccc(Oc3ccc(NC(=O)Nc4cc(C)on4)c(Cl)c3)c2cc1OC [TIVOZANIB] | < 5.00 |  | < 5.00 | < 5.00 | < 5.00 | < 5.00 | 5.11 | < 5.00 | < 5.00 |  |  |
| CS(=O)(=O)c1ccc(-c2cnc(N)c(C(=O)Nc3ccccc3)n2)cc1 [VE-821] | < 5.00 | < 5.00 | < 5.00 |  | < 5.00 | < 5.00 |  | < 5.00 | < 5.00 | 5.17 |  |
